Here are results for nine compounds from ChEMBL document CHEMBL1201862, “PubChem BioAssay data set” (2004).

Among the test systems are COLO 205; HOP-92; SK-OV-3; HOP-62; NCI-H522; 786-0; Malme-3M; OVCAR-4; NCI-H226; OVCAR-5; IGROV-1; SNB-19; EKVX; SF-539; RPMI-8226; DLD-1; KM12; MCF7; T47D; Hs-578T.
What all share (test): inhibition of tumour cell growth, NCI panel, 48 h

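Step 1: Grow cells in 96-well plates. Step 2: Expose to compound for 48 hours at 5 concentrations. Step 3: Interpolate endpoints linearly; if unreached, use highest concentration. GI50 is the concentration that inhibits growth by half.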 The source made the active and inactive calls. No stated cut-off is given here; in the data, active = GI50 up to about 1.1 µM and inactive = higher.

For the compound `C/C(CC(=O)Nc1cccc(C)c1C)=N\NC(N)=S`, the GI50 with COLO 205, in the experiment with HOP-92, with SK-OV-3, with HOP-62, with NCI-H522 and in the experiment on 786-0 was > 100 µM (inactive) in each case. Moreover, the GI50 in the experiment with Malme-3M, with OVCAR-4, in the experiment with NCI-H226, with OVCAR-5, with IGROV-1 and in the experiment on SNB-19 was > 100 µM (inactive) in each case. For the same compound, the GI50 in the experiment on EKVX was > 100 µM (inactive); with SF-539, > 100 µM (inactive); in the experiment with RPMI-8226, 40.8 µM (inactive); with DLD-1 it was > 100 µM (inactive); in the experiment on KM12 it was > 100 µM (inactive).
On to `CNC(=O)OCc1nc(SSC(C)(C)C)n(C)c1COC(=O)NC`, for which the GI50 is 4.3 µM (inactive) in the experiment on MCF7; 1.59 µM (inactive) in the experiment with COLO 205; 1.78 µM (inactive) in the experiment with HOP-92; 17.1 µM (inactive) with SK-OV-3; 12.8 µM (inactive) in the experiment with HOP-62; 1.16 µM (inactive) in the experiment with NCI-H522. The GI50 with 786-0 is 3.06 µM (inactive); with Malme-3M, 1.86 µM (inactive); with OVCAR-4 it was 2.01 µM (inactive); with NCI-H226, 13.3 µM (inactive); with OVCAR-5, 10.4 µM (inactive); with T47D, 2.81 µM (inactive). Also, the GI50 with IGROV-1 was 8.13 µM (inactive); with SNB-19, 18 µM (inactive); in the experiment with EKVX, 8.28 µM (inactive); in the experiment with SF-539, 3.94 µM (inactive); with Hs-578T, 2.22 µM (inactive); in the experiment on RPMI-8226, 2.54 µM (inactive). The values for the GI50 in the experiment with DLD-1 and in the experiment with KM12 were 1.43 µM (inactive) and 17.3 µM (inactive), respectively.
Consider `O=C(CSc1nc(-c2ccccc2)c(-c2ccccc2)[nH]1)N/N=C/c1ccc(O)cc1`, for which the GI50 is 19.5 µM (inactive) in the experiment on COLO 205; 22.8 µM (inactive) in the experiment with HOP-92; 24.8 µM (inactive) in the experiment on SK-OV-3; 19.3 µM (inactive) with HOP-62; 20.2 µM (inactive) with NCI-H522; 22.6 µM (inactive) with 786-0. The GI50 with Malme-3M is 21.4 µM (inactive); with NCI-H226, 31.3 µM (inactive); in the experiment with IGROV-1 it was 26.4 µM (inactive); in the experiment with SNB-19, 32.5 µM (inactive); in the experiment on EKVX it was 30.1 µM (inactive); in the experiment with SF-539, 19.1 µM (inactive). The GI50 in the experiment with RPMI-8226 was 25.7 µM (inactive); in the experiment on DLD-1, 36.7 µM (inactive); in the experiment on KM12, 22.6 µM (inactive).
Turning to `CC(/C=C1\CCC(CN(C)C)C1=O)c1cccc(Br)c1` (stereo unspecified), the GI50 is 17.9 µM (inactive) in the experiment with COLO 205; 18.2 µM (inactive) in the experiment on HOP-92; 65.2 µM (inactive) in the experiment on SK-OV-3; 22.7 µM (inactive) with HOP-62; 8.05 µM (inactive) in the experiment on NCI-H522; 3.41 µM (inactive) in the experiment on 786-0. Also, the GI50 is 17.8 µM (inactive) with Malme-3M; 17 µM (inactive) in the experiment on OVCAR-4; 22.3 µM (inactive) in the experiment on NCI-H226; 22.8 µM (inactive) in the experiment on OVCAR-5; 13.8 µM (inactive) in the experiment on IGROV-1; 26 µM (inactive) in the experiment with SNB-19. Besides, the GI50 is 20.9 µM (inactive) in the experiment with EKVX; 18 µM (inactive) in the experiment on SF-539; 2 µM (inactive) with RPMI-8226; 9.57 µM (inactive) in the experiment with DLD-1; 10.1 µM (inactive) in the experiment on KM12.
Consider `COC(=O)c1cccc2cccc(C(=O)Nc3ccc(Cl)cc3)c12`, for which the GI50 was 0.977 µM (active) in the experiment on COLO 205; > 69.7 µM (inactive) in the experiment with HOP-92; > 100 µM (inactive) in the experiment with SK-OV-3; 13.7 µM (inactive) in the experiment on NCI-H522; > 100 µM (inactive) in the experiment with 786-0; > 100 µM (inactive) in the experiment on Malme-3M. Moreover, the GI50 in the experiment with OVCAR-4 was > 100 µM (inactive); in the experiment on NCI-H226, > 100 µM (inactive); in the experiment with OVCAR-5, > 86.9 µM (inactive); in the experiment with SNB-19, > 100 µM (inactive); with EKVX, 23.2 µM (inactive); with SF-539, 21.3 µM (inactive). Also, the results for the GI50 in the experiment on RPMI-8226, in the experiment on DLD-1 and in the experiment on KM12 were 2.09 µM (inactive), > 21.7 µM (inactive) and > 40.9 µM (inactive), respectively.
`C#CCN(N=O)C(=O)NCCCCC(NC(=O)OCc1ccccc1)C(=O)OCc1ccccc1` (stereo unspecified): the GI50 with HOP-92 was 20.3 µM (inactive); in the experiment with SK-OV-3, > 100 µM (inactive); in the experiment with HOP-62, > 100 µM (inactive); in the experiment on NCI-H522, 15.3 µM (inactive); in the experiment with 786-0 it was > 100 µM (inactive); in the experiment on Malme-3M, 29.9 µM (inactive). The GI50 in the experiment with OVCAR-4 is > 100 µM (inactive); in the experiment on NCI-H226, > 100 µM (inactive); in the experiment with OVCAR-5, > 100 µM (inactive); in the experiment on IGROV-1, 76 µM (inactive); in the experiment with SNB-19 it was > 100 µM (inactive); in the experiment on EKVX it was > 100 µM (inactive). Further, the GI50 in the experiment on SF-539 is 16.3 µM (inactive); in the experiment on RPMI-8226, 31.9 µM (inactive); with DLD-1, 29 µM (inactive); with KM12, > 100 µM (inactive).
`Cc1cccc(C(C)(C)C)c1NC(=O)C(=O)Cc1nc2ccccc2s1`: the GI50 in the experiment on COLO 205, in the experiment with HOP-92, in the experiment with SK-OV-3, in the experiment with HOP-62, with NCI-H522 and with 786-0 was > 100 µM (inactive) in each case. The GI50 with Malme-3M, with OVCAR-4, in the experiment with NCI-H226, in the experiment with OVCAR-5, with IGROV-1 and with SNB-19 was > 100 µM (inactive) each time. Moreover, the GI50 with EKVX is 27.4 µM (inactive); with SF-539, > 100 µM (inactive); with RPMI-8226, > 100 µM (inactive); in the experiment with DLD-1, > 100 µM (inactive); in the experiment with KM12, > 100 µM (inactive).
Regarding `CC(C)c1ccc(C2C3=C(N=C4SCC(=O)N42)C(=O)c2ccccc23)cc1` (stereo unspecified), the GI50 in the experiment with COLO 205 was > 100 µM (inactive); with HOP-92, 15.7 µM (inactive); in the experiment on SK-OV-3 it was > 100 µM (inactive); in the experiment with HOP-62, > 100 µM (inactive); with NCI-H522, 22.4 µM (inactive); in the experiment with 786-0, > 100 µM (inactive). For the same compound, the GI50 in the experiment on Malme-3M was > 100 µM (inactive); in the experiment with OVCAR-4 it was 43.4 µM (inactive); in the experiment on NCI-H226, 51.4 µM (inactive); with OVCAR-5, > 100 µM (inactive); in the experiment on IGROV-1, > 100 µM (inactive); with SNB-19 it was 64.9 µM (inactive). In addition, the GI50 with EKVX was 77.3 µM (inactive); in the experiment with SF-539, > 100 µM (inactive); with RPMI-8226, 43.3 µM (inactive); with DLD-1 it was 81.8 µM (inactive); in the experiment with KM12 it was > 100 µM (inactive).
As for `CC(C)=CC(=O)Oc1ccc([N+](=O)[O-])cc1`, the GI50 was > 100 µM (inactive) in the experiment on COLO 205; > 100 µM (inactive) with HOP-92; > 100 µM (inactive) in the experiment with SK-OV-3; > 100 µM (inactive) in the experiment with HOP-62; 2.18 µM (inactive) in the experiment on NCI-H522; > 100 µM (inactive) in the experiment with 786-0. For the same compound, the GI50 in the experiment with Malme-3M, in the experiment with OVCAR-4, in the experiment on NCI-H226, in the experiment with OVCAR-5, with IGROV-1 and with SNB-19 was > 100 µM (inactive) each time. In addition, the GI50 was > 100 µM (inactive) in the experiment on EKVX; > 100 µM (inactive) in the experiment with SF-539; > 100 µM (inactive) in the experiment on RPMI-8226; > 100 µM (inactive) with DLD-1; 38.3 µM (inactive) in the experiment on KM12.
